For data set [1] the following is noted: oral dosage of 21 mg/kg, as reported by documents; cited from earlier work.
Data set [2] is described as follows: Phase solubility of naringenin with hydroxypropyl β-cyclodextrin in environments of different pH values. In kind it is physicochemical. Particulars: basic pH (8 and 9) versus ultrapure water, same hydroxypropyl β-cyclodextrin concentration (0-16% w/v), 25±1° C., 48 hours. The text has this:
The process of the experimentation on the coating and solubilization of naringenin by hydroxypropyl β-cyclodextrin comprises:
preparing buffer-salt solutions of pH values of 4, 8 and 9 according to the method on a pharmacopoeia, adding different masses of the hydroxypropyl β-cyclodextrin into the buffer-salt solutions of the pH values of 4, 8 and 9 and ultrapure water, to prepare solutions of hydroxypropyl β-cyclodextrin of mass fractions (w/v) of 0, 2, 4, 8 and 16%, adding individually excessive naringenin, shaking in a constant-temperature shaking table at 25±1° C. at 200 rpm for 48 hours, taking out, standing, filtering by using a 0.45 μm microporous filter membranes, removing the primary filtrate, properly diluting the subsequent filtrate, and performing ultraviolet assay.
The detection method comprises, by using ultraviolet-visible spectrophotometry, measuring at the wavelength of 288 nm.
The preparing of a stock solution of the reference substance comprises: precisely weighing an appropriate amount of the naringenin reference substance that has been dried at 105° C. to constant weight, placing in a 10 mL volumetric flask, and dissolving by using methanol to volume, to obtain a stock solution of the reference substance of the concentration of 1 mg/mL. […]

For data set [3] the following is noted: oral administration, rat; cited from earlier work.

In the case of `O=C1C[C@@H](c2ccc(O)cc2)Oc2cc(O)cc(O)c21` [naringenin], in data set [1], the AUC0-t is 15080.4 ng·min/g and the Tmax is 2 h. Further, the “total naringenin concentration in hydroxypropyl β-cyclodextrin solution at basic pH relative to ultrapure water” value in data set [2] is reported as “approximately 3 times”. In addition, the “bioavailability, as calculated by the free naringenin” value in data set [3] was “approximately 4%”.

These data come from patent US12064412B2 (SUN YAT-SEN UNIVERSITY, priority 2019, dated 2024).
